From patent US7534871B2, “Preparation and use of carbohydrate-based bicyclic ring structures with antimicrobial and cytostatic activity” (Kemin Pharma B.V.B.A., priority 2004, dated 2009)
Converted amounts (≈) assume the structure as drawn.

Assays:
[1] = system: S. aureus ATTC29213 LMG10147; assay: Anti-bacterial activity, Bioscreen C growth curve: S. aureus; type: cell-based; conditions: Staphylococcus aureus, 35° C., 16 hours, negative control = 100, read-out: % of growth at 25 PPM compared to the negative control, S. aureus ATTC29213 LMG10147
Experimental: (§1) For the determination of the anti-bacterial and anti-fungal activity the Bioscreen C Analyser Labsystems, Finland, was used. This is an automated reader-incubator. It measures growth continuously by vertical photometry (optical density), processes the data and provides a print out of the results. The area under the growth curve is automatically determined via the Biolink software.
(§2) The inoculum size of the bacteria is standardized to approximately 5×10^5 CFU/ml.
(§3) For bacteria, the 100-honey-well plates containing test chemical, Mueller-Hinton broth and inoculum (=sample) are incubated at 35° C. for 16 hours. Also wells without inoculum are incubated (=blanco). Yeasts are incubated 35° C. for 24 hours in RPMI 1640+MOPS buffer at 165 mM. Moulds also in RPMI 1640+MOPS buffer at 165 mM are incubated 25° C. for 5 days. All micro-organisms are screened against a known concentration of the reference antibiotics or antimycotics such as vancomycin, penicillin G, gentamicin or amphotericin B. The growth curve and the area under the growth curve can be determined using the Biolink software; this is illustrated in FIG. 1.
(§4) The area of the blanco is subtracted from the area of the sample, this number (delta) gives us an indication of the biological activity of the molecules tested and can be expressed as a % of growth at a specific dose compared to a negative control that has a value of 100, illustrated in FIG. 2. Screening of each dose of a specific compound is repeated 5 times. The dose used for all new molecules in all tests is 25 PPM or 25 μg/ml.
(§5) In Table 4 the results of the anti-bacterial activity is given for the new molecules. The micro-organisms used are Staphylococcus aureus, MRSA, VRE, Enterococcus faecalis, Salmonella typhimurium and Pseudomonas aeruginosa.

[2] = system: Microsporum gypseum IHEM 3999 - ATCC 14683; assay: Anti-fungal activity, Bioscreen C growth curve: Microsporum gypseum (mold); type: cell-based; conditions: Nannizzia gypsea, ATCC14683, 120 h; 25 PPM; 25° C., 5 days; negative control = 100; read-out: % of growth at a dose of 25 PPM compared to the negative control, Microsporum gypseum IHEM 3999 - ATCC 14683
Experimental: as §1
The inoculum size of the mould is standardized to 0.4-5.0×10^4 CFU/ml.
as §3, §4
(§6) In Table 5 the anti-fungal activity is given for the new molecules. The micro-organisms used were Candida albicans (a typical yeast) and Microsporum gypseum (a typical mold).
as §1, with “Also for” for “For”, “the” for “the anti-bacterial and”, “Labsystems Oy, Finland” for “Labsystems, Finland,”, “used.” for “used. This is an automated reader-incubator.”
(§7) The inoculum size of the yeast is standardized to 0.5-2.5×10^3 CFU/ml. The inoculum size of the mould is standardized to 0.4-5.0×10^4 CFU/ml. Yeasts are incubated 35° C. for 24 hours in RPMI 1640+MOPS buffer at 165 mM. Moulds also in RPMI 1640+MOPS buffer at 165 mM are incubated 25° C. for 5 days.
(§8) As a control, all micro-organisms are screened against some reference antibiotics with known MIC. Screening of each dose of a specific compound is repeated 5 times.

MRSA ATCC33591 = assay: Anti-bacterial activity, Bioscreen C growth curve: MRSA; type: cell-based, methicillin-resistant Staphylococcus aureus (MRSA); conditions: for activity at 25 ppm: Staphylococcus aureus, ATCC 33591 / LMG10147 / MRSA, 35° C., 16 hours, negative control = 100, read-out: % of growth at 25 PPM compared to the negative control, MRSA ATCC33591 LMG10147
Experimental: as §1, §2, §3, §4, §5

[3] = system: Candida albicans IHEM 10284 - ATCC 24433; assay: Anti-fungal activity, Bioscreen C growth curve: Candida albicans (yeast); type: cell-based; conditions: Candida albicans, ATCC24433; 25 PPM; 35° C., 24 hours; negative control = 100; read-out: % of growth at a dose of 25 PPM compared to the negative control, Candida albicans IHEM 10284 - ATCC 24433
Experimental: as §1
The inoculum size of the yeast is standardized to 0.5-2.5×10^3 CFU/ml.
as §3, §4, §6
as §1, with “Also for” for “For”, “the” for “the anti-bacterial and”, “Labsystems Oy, Finland” for “Labsystems, Finland,”, “used.” for “used. This is an automated reader-incubator.”
as §7, §8

[4] = system: P. aeruginosa ATCC27853 LMG16217; assay: Anti-bacterial activity, Bioscreen C growth curve: P. aeruginosa; type: cell-based, Pseudomonas aeruginosa; conditions: Pseudomonas aeruginosa; 25 PPM; 35° C., 16 hours; negative control = 100; read-out: % of growth at 25 PPM compared to the negative control, P. aeruginosa ATCC27853 LMG16217
Experimental: as §1, §2, §3, §4, §5

[5] = system: E. faecalis ATTC29212 LMG 8222; assay: Anti-bacterial activity, Bioscreen C growth curve: E. faecalis; type: cell-based; conditions: Enterococcus faecalis, LMG8222, 35° C., 16 hours, negative control = 100, read-out: % of growth at 25 PPM compared to the negative control, E. faecalis ATTC29212 LMG 8222
Experimental: as §1, §2, §3, §4, §5

[6] = system: S. typhimurium ATTC700408; assay: Anti-bacterial activity, Bioscreen C growth curve: S. typhimurium; type: cell-based; conditions: Salmonella enterica, LMG16217 / TYPHIMURIUM, 35° C., 16 hours, negative control = 100, read-out: % of growth at 25 PPM compared to the negative control, S. typhimurium ATTC700408 LMG16217
Experimental: as §1, §2, §3, §4, §5

VRE ATCC700221 = assay: Anti-bacterial activity, Bioscreen C growth curve: VRE; type: cell-based, vancomycin-resistant Enterococcus (VRE); conditions: Enterococcus, 35° C., 16 hours, negative control = 100, read-out: % of growth at 25 PPM compared to the negative control, VRE ATCC700221
Experimental: as §1, §2, §3, §4, §5

[7] = system: human T-lymphocyte cells (CEM/0); assay: Cytostatic activity: inhibition of proliferation of CEM/0 cells; type: cell-based; conditions: CCRF-CEM, 50% inhibitory concentration, cell proliferation, read-out: IC50 CEM/0
Experimental: (§9) The compounds were tested for anti-tumor activity via the inhibitory effects on the proliferation of murine leukemia cells (L1210/0), murine mammary carcinoma cells (FM3A), human T-lymphocyte cells (Molt4/C8, CEM/0) and human cervix carcinoma cells (HeLa).

HSV-1 (KOS) = assay: Anti-viral activity: HSV-1-induced cytopathicity in human embryo fibroblast E6SM cell cultures; type: cell-based, herpes simplex virus (HSV); conditions: Human alphaherpesvirus 1, 50%
HSV-2 (G) = assay: Anti-viral activity: HSV-2-induced cytopathicity in human embryo fibroblast E6SM cell cultures; type: cell-based, herpes simplex virus (HSV); conditions: Human alphaherpesvirus 2, 50%
[8] = system: human T-lymphocyte cells (Molt4/C8); assay: Cytostatic activity: inhibition of proliferation of Molt4/C8 cells; type: cell-based; conditions: Molt4/C8, 50% inhibitory concentration, cell proliferation, read-out: IC50 Molt4/C8
Experimental: as §9

HEL cells = assay: Cytotoxicity: alteration of cell morphology (MCC); type: cell-based, human; conditions: minimum cytotoxic concentration that causes a microscopically detectable alteration of cell morphology
VV = assay: microbe, parasite or virus in culture; type: cell-based; conditions: Orthopoxvirus vaccinia, E6SM, read-out: EC50 VV (E6SM)
[9] = system: murine mammary carcinoma cells (FM3A); assay: Cytostatic activity: inhibition of proliferation of FM3A cells; type: cell-based; conditions: Mus musculus, 50% inhibitory concentration, cell proliferation, read-out: IC50 FM3A/0
Experimental: as §9

VZV OKA = assay: microbe, parasite or virus in culture; type: cell-based, varicella zoster virus (VZV); conditions: Human alphaherpesvirus 3, HEL, read-out: EC50 VZV (HEL) OKA
CMV Davis strain = assay: Anti-CMV activity: plaque reduction in HEL cells, Davis strain; type: cell-based, human cytomegalovirus (CMV); conditions: Human betaherpesvirus 5, HEL; Table 6; reduce virus plaque formation by 50%; virus input 100 PFU; read-out: Anti-CMV activity IC50 Davis strain
CMV AD-169 strain = assay: Anti-CMV activity: plaque reduction in HEL cells, AD-169 strain; type: cell-based, human cytomegalovirus (CMV); conditions: Human betaherpesvirus 5, AD169, HEL; Table 6; reduce virus plaque formation by 50%; virus input 100 PFU; read-out: Anti-CMV activity IC50 AD-169 strain
[10] = system: murine leukemia cells (L1210/0); assay: Cytostatic activity: inhibition of proliferation of L1210/0 cells; type: cell-based; conditions: Mus musculus, L1210/0; 50% inhibitory concentration, cell proliferation; read-out: IC50 L1210/0
Experimental: as §9

VZV YS = assay: Anti-viral activity: VZV-induced plaque formation in HEL cell cultures, YS strain; type: cell-based, varicella zoster virus (VZV); conditions: Human alphaherpesvirus 3, VZV-induced plaque formation in human embryonic lung HEL cell cultures, 50%
[11] = Cytotoxicity: inhibition of HEL cell growth (CC50); type: cell-based; conditions: human; concentration required to reduce cell growth by 50%; HEL cells, three days
Experimental: The medium was then replaced by MEM containing various concentrations of the test compound. After three days incubation at 37° C., when the cell monolayer was 70% confluent, the cell number was determined with the Coulter counter. The minimum cytotoxic concentration was defined as the concentration required to reduce cell growth by 50%.

| SMILES | activity at 25 ppm [1] | activity at 25 ppm [2] | activity at 25 ppm (MRSA ATCC33591) | activity at 25 ppm [3] | activity at 25 ppm [4] | activity at 25 ppm [5] | activity at 25 ppm [6] | activity at 25 ppm (VRE ATCC700221) | other results |
| --- | --- | --- | --- | --- | --- | --- | --- | --- | --- |
| CO[C@@H]1[C@@H](OC)[C@H](Sc2ccccc2)O[C@@H]2CNC(=O)CCC=CCCC(=O)O[C@@H]12 [KPE00001041] | 56.7% | 81% | 75.6% | 78.1% | 83.3% | 68.2% | 96.6% | 93% | anti-bacterial activity against gram-positive bacteria including MRSA, in words (MRSA ATCC33591; conclusion on Table 4): good anti-bacterial activity |
| CO[C@@H]1[C@@H](OC)[C@H](Sc2ccccc2)O[C@@H]2CNC(=O)CC/C=C/CCCO[C@@H]12 [KPE00001042] | 97% | 79% | 104% | 90.3% | 94.7% | 93.3% | 98% | 96% |  |
| c1ccc(CO[C@@H]2[C@@H](OCc3ccccc3)[C@H](Sc3ccccc3)O[C@@H]3CO[C@@H](c4ccccc4)O[C@@H]23)cc1 [KPE00001044] |  |  |  |  |  |  |  |  | IC50 [7]: > 200 µg/mL; EC50 (HSV-1 (KOS)): > 3.2 µg/mL; EC50 (HSV-2 (G)): > 3.2 µg/mL; IC50 [8]: > 200 µg/mL; Cytotoxicity Cell morphology (MCC) (HEL cells): 5 μg/ml; EC50 (VV): > 3.2 µg/mL; IC50 [9]: 130 ± 61 µg/mL (≈ 240 µM); EC50 (VZV OKA): > 2 µg/mL; IC50 (CMV Davis strain): > 2 µg/mL; IC50 (CMV AD-169 strain): > 2 µg/mL; IC50 [10]: > 200 µg/mL; EC50 (VZV YS): > 2 µg/mL; CC50 at 3 days [11]: > 50 µg/mL |
| CO[C@H]1[C@H](OC)[C@H](OC)COC/C=C/COC[C@H]2OC[C@H](OC)[C@@H](OC)[C@@H]2OC(=O)NC[C@@H]1OC [KPE00001056] | 105% | 77% | 113% | 101% | 106% | 111% | 93.7% | 91% |  |
